These results are taken from patent US7410767B1, “HLA-E binding” (Isis Innovation Limited, priority 1997, dated 2008).

Where two headings read alike, the source gives them in different places. No end group written: not given here.

This experiment has as its target HLA-E (Homo sapiens, UniProt P13747, G128R). The experiment is described as follows: in vitro peptide binding assay to HLA-E. The text has this:
Whatever form of HLA-E is used, a suitable peptide for binding in the HLA-E peptide groove will be required. […] Other peptides which bind to HLA-E may be used, for example peptides from viral proteins which may be the same as or different to MHC class I leader sequence peptides. […] A suitable assay for identifying synthetic peptides which bind to HLA-E is described in Braud et al 1997 Eur. J. Immunol. 27:1164-1169.

The mark [1] stands for this setting: in vitro peptide binding assay, ratio of optical densities, read-out: Concentration of peptide required to obtain 50% of binding to HLA-E.

The compound `CSCC[C@H](NC(=O)[C@@H](N)C(C)C)C(=O)N[C@@H](C)C(=O)N1CCC[C@H]1C(=O)N[C@@H](CCCNC(=N)N)C(=O)N[C@H](C(=O)N[C@@H](CC(C)C)C(=O)N[C@@H](CC(C)C)C(=O)N[C@@H](CC(C)C)C(=O)O)[C@@H](C)O` returned an EC50 of 300 nM.

Turning to `CSCC[C@H](NC(=O)[C@@H](N)C(C)C)C(=O)N[C@@H](C)C(=O)N1CCC[C@H]1C(=O)N[C@@H](CCCNC(=N)N)C(=O)N[C@H](C(=O)N[C@@H](CC(C)C)C(=O)N[C@H](C(=O)N[C@@H](CC(C)C)C(=O)O)C(C)C)[C@@H](C)O`, the EC50 under setting [1] is 60 nM.

Consider `CSCC[C@H](NC(=O)[C@@H](N)C(C)C)C(=O)N[C@@H](C)C(=O)N1CCC[C@H]1C(=O)N[C@@H](CCCNC(=N)N)C(=O)N[C@H](C(=O)N[C@H](C(=O)N[C@@H](CC(C)C)C(=O)N[C@@H](CC(C)C)C(=O)O)C(C)C)[C@@H](C)O`, for which, under setting [1], the EC50 turned out to be 60 nM.

With `CC(C)C[C@H](NC(=O)[C@H](CC(C)C)NC(=O)[C@@H](NC(=O)[C@@H](NC(=O)[C@H](CCCNC(=N)N)NC(=O)[C@@H]1CCCN1C(=O)[C@H](C)NC(=O)[C@@H](NC(=O)[C@@H](N)C(C)C)[C@@H](C)O)[C@@H](C)O)C(C)C)C(=O)O`, under setting [1], the EC50 was over 100000 nM.

In the case of VTAPRTLLL, the EC50 under setting [1] was over 100000 nM.
